Tests used:
Experiment in all cases: Anti-herpes activity, viability of infected vero cells (neutral red)
Conditions in all cases: incubation time 72 hours
[1] = tested on: acyclovir-resistant strain HSV-1R; type: cell-based, herpes simplex virus 1
Procedure: (§1) This method is based on the principle that living cells absorb neutral red, which is a vital stain. The optical density of the medium was measured at the maximum absorption wavelength of neutral red, that is to say 540 nm, using a spectrophotometer (SpectraCount™, microplate photometer, Packard). The optical density at 540 nm is proportional to the number of living cells in an infected culture (McLaren et al., Antiviral Research, 1983; 3: 223-234 and Langlois et al., Standardization, 1986, 14: 201-211).
(§2) The effective concentration (EC 50%), that is to say the concentration of the sulphated polysaccharide which enables infection of 50% of the cells of a culture to be inhibited, was measured for each viral strain.
(§3) The determination of the EC50 was carried out in 96-well microtitre plates in accordance with the following protocol. Vero cells are seeded at a cell density of 3.5·10^4 cells/well in 100 μl of MEM medium containing 8% FCS. For each viral suspension defined by its MOI: • the negative control column was filled with 100 μl of MEM medium with 8% FCS, • the virus control column was filled with 50 μl of viral suspension having the required MOI and with 50 μl of MEM medium with 8% FCS, • the PS3 control column was filled with 50 μl of PS3 having the desired concentration range or with 50 μl of acyclovir (Zovirax 0.05-5 μg/ml • finally, all the other columns were filled successively with 50 μl of PS3 having the required concentration range or with 50 μl of acyclovir (Zovirax 0.05-5 μg/ml) and with 50 μl of the viral suspension having the desired MOI.
(§4) The EC50 corresponding to the concentration which enables the cytopathic effect of the virus to be reduced by 50% was calculated in accordance with the following formula: […]
(§5) The anti-herpes activity of PS3 was evaluated and compared on each viral suspension of HSV-1, HSV-1R, HSV-2 and HSV-2R defined by an MOI of 0.01 ID50/cell for a cell concentration of 350,000 cells/ml, after incubation times of 48 and 72 hours.
(§6) This series of experiments was carried out applying the protocol enabling the EC50 to be determined, as described in Example 3.
(§7) The therapeutic indices (TI) of PS3, as well as three other reference products, that is to say acyclovir, dextran sulphate and phycarine, were determined in parallel for each viral strain.
(§8) The therapeutic index (TI) represents the ratio between the maximum non-toxic dose (or a dose inducing a quantified toxicity) and the dose inducing a favourable pharmacological effect.

HSV-1 = type: cell-based, herpes simplex virus 1
Procedure: as §1, §2, §3, §4, §5, §6, §7, §8

[2] = tested on: acyclovir-resistant strain HSV-2R; type: cell-based, herpes simplex virus 2
Procedure: as §1, §2, §3, §4, §5, §6, §7, §8

HSV-2 = type: cell-based, herpes simplex virus 2
Procedure: as §1, §2, §3, §4, §5, §6, §7, §8

dextran sulphate [reference compound]
Therapeutic index HSV-1R [1]: >641 | Therapeutic index HSV-1 (HSV-1): >868 | Therapeutic index HSV-2R [2]: >4,545 | Therapeutic index HSV-2 (HSV-2): >3,571
